According to patent publication US20260174814A1 (DR. OREGONIN INC., priority 2023, published 2026):

Assay: Protective effect on dexamethasone-induced myotube cell damage (MTT assay)
Assay type: cell-based
Details: mouse, C2C12 cells differentiated into myotubes, 5 μM dexamethasone alone, read-out: decrease of cell viability compared to the control group not treated with dexamethasone
Protocol: C2C12 cells, a myoblast derived from mouse skeletal muscle, were purchased from American Type Culture Collection (ATCC) and used. C2C12 cells were cultured in a 37° C.-wet CO2 incubator (5% CO2/95% air) using a cell culture medium in which 10% fetal bovine serum (FBS), 100 units/mL penicillin, and 100 μg/mL streptomycin were added to Dulbecco's Modified Eagle Medium (DMEM). When the cells were 80% full, the cell monolayer was washed with phosphate buffer saline (PBS, pH 7.4), trypsin-2.65 mM EDTA was added thereto, and the cells were detached and subcultured, and the medium was exchanged every 2 days. In order to induce differentiation into myotubes of C2C12 cells, the cells were cultured by exchange with a myocyte differentiation culture medium in which 2% horse serum (HS) was added to DMEM medium, and the myocyte differentiation culture medium was exchanged every 2 days.
C2C12 cells were seeded in 24-well plate at 5×10^4 cells/well and cultured for 24 hours. Thereafter, in order to induce differentiation into myotubes of C2C12 cells, the cell culture medium was exchanged with the myocyte differentiation culture medium to induce differentiation for 4 days. […] After the cells were cultured for 24 hours, MTT assay was performed in the same manner as described above to measure the cell viability.

Question: Which cytotoxicity at 24 h, 5 μM does the source give for C[C@@H]1C[C@H]2[C@@H]3CCC4=CC(=O)C=C[C@]4(C)[C@@]3(F)[C@@H](O)C[C@]2(C)[C@@]1(O)C(=O)CO [dexamethasone] here?
Answer: ~10%
